Measurements published in PMC4782163, “A Novel Pentapeptide Targeting Integrin β3-Subunit Inhibits Platelet Aggregation and Its Application in Rat for Thrombosis Prevention” (Frontiers in Pharmacology, 2016).
Where two headings read alike, the source gives them in different places. Where a SMILES comes first, the peptide text is derived from it.

Columns and labels:
Kunming mice = tested on: Kunming mice
Description: Kunming mice (n = 6 for each group) were intravenously injected with different concentrations of P1Cm, ranging from 0.075 to 6 mmol/kg (10x IC90), or tirofiban ranging from 0.025 to 2 mmol/kg (10x IC90). Blood pressure and breath were monitored after injection, and the mesentery were observed under microscope after the animals were sacrificed. Mortality within the next 3 days was recorded.

[1] = tested on: artery-vein shunt thrombus formation; test: Artery-vein shunt thrombosis model; assay type: in vivo, rat
Description: Fifty male Wistar rats (250–300 g) were randomly divided into five groups: high-, middle-, and low-dose groups of P1Cm, a saline group, and a tirofiban group (n = 10 per group). The animals were treated with the same concentrations as in the previous thrombosis model, 0.15, 0.30, or 0.45 mmoL/kg of P1Cm, 0.15 mmoL/kg of tirofiban, or an equal volume of saline by tail vein injection after being anesthetized by an intraperitoneal injection of ketamine (100 mg/kg). The operation was carried out as previously reported (Sato et al., [1998]; Jing et al., [2011]). Briefly, the right carotid and left jugular veins were separated. An 8 cm silk thread was placed inside a polyethylene tube filled with heparin sodium solution (50 IU/mL). The right carotid and left jugular veins were connected with the tube. One end of the tube containing the thread was inserted into the left jugular vein, and the other end was inserted into the right carotid artery. Blood was allowed to flow from the right carotid artery to the left jugular vein through the polyethylene tube for 15 min. The tube was then removed, and the weight of the attached wet thrombus on the thread was measured immediately. The rats were sacrificed through an intravenous injection of air.

plasma coagulation = test: Coagulation parameters in plasma (FIB, TT, PT, APTT)
[2] = tested on: carotid arterial thrombosis; test: Ferric chloride-induced carotid arterial thrombosis model (CDFI, pathology); assay type: in vivo, rat; details: 0.15 mmol/kg tail vein, Wistar rats, n = 6, mean ± SD
Description: Thirty male Wistar rats (250–300 g) were randomly divided into five groups: high-, middle-, and low-dose treated groups of P1Cm, a saline group, and a tirofiban group (n = 6 per group). The rats were operated on the right common carotid artery (Bird et al., [2008]). Briefly, the rat was first anesthetized by an intraperitoneal injection of ketamine (100 mg/kg). The fascia was bluntly dissected to expose the right common carotid artery immediately after a dosage of 0.15, 0.30, or 0.45 mmoL/kg of P1Cm, 0.15 mmoL/kg of tirofiban, or an equal volume of saline applied accordingly via tail vein injection. A 3 × 4 mm piece of filter paper saturated with ferric chloride (10% solution) was placed under the right carotid artery for 20 min and then removed. Thrombus size and blood flow were detected by color Doppler flow imaging (CDFI) (13 MHz phased-array transducer, LOGIQ S6 Color Doppler Ultrasonographer, GE, USA; Chua et al., [2012]). The animals were kept anesthetized during the CDFI measurements.
To obtain fresh samples immediately after measurement, the animals were sacrificed through an intravenous injection of air, and the injured carotid artery was collected for pathological examination. Carotid artery samples were fixed with 10% neutral buffered formalin and embedded in paraffin wax for routine histological analysis with hematoxylin and eosin staining. Morphometric analysis was carried out using a Leica Q500/W microscope (Leica Microsystems, Wetzlar, Germany). The antithrombosis effect was evaluated by calculating the percentage of carotid artery area covered by the thrombus (Hosokawa et al., [2011]).

[3] = dosage IC50 (P1Cm 0.075, tirofiban 0.025 mmol/kg), i.v., n = 6, within 3 days
[4] = dosage IC90, i.v., n = 6, within 3 days

Row | SMILES | Mortality (Kunming mice; [3]) | Mortality (Kunming mice; [4]) | Mortality (Kunming mice; mouse, in vivo, iv) | EMW (thrombosis wet weight) ([1]; 0.15 mmol/kg tail vein, Wistar rats, 15 min shunt, n = 10, mean ± SD) [mg] | Decrease of thrombus weight vs saline group ([1]; 0.15 (mM in the source), rats) [%] | Mortality (Kunming mice; dosage 10x IC90 (P1Cm 6, tirofiban 2 mmol/kg), i.v., n = 6, within 3 days) | Effect on coagulation parameters (plasma coagulation; 0.15 mM, P < 0.05) | FIB (plasma coagulation; tirofiban group (0.15 mM), 5 min 37°C) [g/L] | PSFV (peak systolic flow velocity) [2] [cm/s] | Thrombosis SIZE/area [2] | VSR (vascular stenosis rate) [2] [%]
1 | CC[C@H](C)[C@H](N)C(=O)N[C@@H](CCCNC(=N)N)C(=O)N[C@H](C(=O)N1CCC[C@H]1C(=O)N[C@@H](CCCCN)C(=O)O)[C@@H](C)O [Peptide P1Cm] (H-IRTPK-OH) | 0 | 0 | 0 | – | – | – | – | – | – | – | –
2 | CCCCS(=O)(=O)N[C@@H](Cc1ccc(OCCCCC2CCNCC2)cc1)C(=O)O [Tirofiban] | 0 | 0/6 | – | 27.51 ± 4.03 | 39.92 | 2/6 | apparently inhibited the coagulation and affected the parameters | 4.23 ± 0.71 | 84.2 ± 3.50 | 0.007 ± 0.001^* cm^2 | 28.25 ± 5.83
